{
  "source": "patent US7989438B2",
  "about": "“Therapeutic compounds” (Istituto di Ricerche di Biologia Molecolare P. Angeletti SpA, priority 2007, dated 2011)",
  "data": [
    {"tested_on": "HCV subgenomic replication", "test": "Cell based HCV replication assay (subgenomic replicon in Huh-7 cells, NS3 Cell-ELISA)", "conditions": "Hepatitis C virus, Huh-7; Table 3, various macrocycles; activity ranges; read-out: IC50* (nM), Inhibition of HCV subgenomic replication", "procedure,_shortened": "(§1)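 Huh-7 cells stably carrying the I377neo/NS3-3′/wt subgenomic replicon, seeded at 10^4 cells/well in DMEM/10% FCS and exposed to inhibitor for 96 h. NS3 expression was measured by Cell-ELISA (mAb 10E5/24, alkaline phosphatase, absorbance 405/620 nm), in duplicate. IC50 was fitted to the Hill equation, with background from parental Huh-7 cells.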", "units": {"IC50": "nM"}, "values": [
      {"compound": "CN(C)CCN1CCOC2CCN(CC2)S(=O)(=O)NC(=O)c2ccc3c(C4CCCCC4)c4n(c3c2)C[C@@H]1COc1ccccc1-4", "note": "[Example 307, (20R)-31-cyclohexyl-21-[2-(dimethylamino)ethyl]-18,24-dioxa-2-thia-1,3,10,21-tetraazahexacyclo[23.2.2.1^5,9.1^8,11.1^10,20.0^12,17]dotriaconta-5(32),6,8,11(31),12,14,16-heptaen-4-one 2,2-dioxide]", "IC50": "150 to 500"},
      {"compound": "O=C1NS(=O)(=O)N2CCN(CCN(CCF)[C@H]3COc4ccccc4-c4c(C5CCCCC5)c5ccc1cc5n4C3)CC2", "note": "[Example 308, (20R)-30-cyclohexyl-21-(2-fluoroethyl)-18-oxa-2-thia-1,3,10,21,24-pentaazahexacyclo[22.2.2.1^5,9.1^8,11.1^10,20.0^12,17]hentriaconta-5(31),6,8,11(30),12,14,16-heptaen-4-one 2,2-dioxide]", "IC50": "25 to 150"},
      {"compound": "O=C1NS(=O)(=O)N2CCCN(CCN(Cc3ccccc3)[C@H]3COc4ccccc4-c4c(C5CCCCC5)c5ccc1cc5n4C3)CC2", "note": "[Example 309, (20R)-21-benzyl-31-cyclohexyl-18-oxa-2-thia-1,3,10,21,24-pentaazahexacyclo[22.3.2.1^5,9.1^8,11.1^10,20.0^12,17]dotriaconta-5(32),6,8,11(31),12,14,16-heptaen-4-one 2,2-dioxide]", "IC50": "150 to 500"}
    ]},
    {"tested_on": "HCV subgenomic replication", "test": "Cell based HCV replication assay (subgenomic replicon in Huh-7 cells, NS3 Cell-ELISA)", "conditions": "Hepatitis C virus, Huh-7; Table 5, various macrocycles; activity ranges; read-out: IC50* (nM), Inhibition of HCV subgenomic replication", "procedure,_shortened": "as §1", "units": {"IC50": "nM"}, "values": [
      {"compound": "CN1C2CCN(CCC3COc4ccccc4-c4c(C5CCCCC5)c5ccc(cc5n4C3)C(=O)NS1(=O)=O)CC2", "note": "(centres unmarked) [Example 504, 30-cyclohexyl-23-methyl-6-oxa-22-thia-1,14,21,23-tetraazahexacyclo[22.2.2.1^4,14.1^13,16.1^15,19.0^7,12]hentriaconta-7,9,11,13(30),15(29),16,18-heptaen-20-one 22,22-dioxide]", "IC50": "25 to 150"},
      {"compound": "O=C1NS(=O)(=O)N2CCCN(CCCC3COc4ccccc4-c4c(C5CCCCC5)c5ccc1cc5n4C3)CC2", "note": "(centres unmarked) [Example 508, 31-cyclohexyl-18-oxa-2-thia-1,3,10,24-tetraazahexacyclo[22.3.2.1^5,9.1^8,11.1^10,20.0^12,17]dotriaconta-5(32),6,8,11(31),12,14,16-heptaen-4-one 2,2-dioxide]", "IC50": "25 to 150"}
    ]},
    {"tested_on": "HCV subgenomic replication", "test": "Cell based HCV replication assay (subgenomic replicon in Huh-7 cells, NS3 Cell-ELISA)", "conditions": "Table 4, various macrocycles; activity ranges; read-out: IC50* (nM), Inhibition of HCV subgenomic replication", "procedure,_shortened": "as §1", "units": {"IC50": "nM"}, "values": [
      {"compound": "CN1CCNCCN(C)S(=O)(=O)NC(=O)c2ccc3c(C4CCCCC4)c4n(c3c2)CC1COc1ccccc1-4", "note": "[Example 401, (7S)-14-cyclohexyl-18,24-dimethyl-7,8-dihydro-6H-7,11-(epiminoethanoiminoethanoiminothioiminomethano)-indolo[1,2-e][1,5]benzoxazocin-15-one 17,17-dioxide]", "IC50": "25 to 150"},
      {"compound": "CN(C)CCN1CCOCCN(C)S(=O)(=O)NC(=O)c2ccc3c(C4CCCCC4)c4n(c3c2)CC1COc1ccccc1-4", "note": "[Example 402, (7R)-14-cyclohexyl-24-[2-(dimethylamino)ethyl]-18-methyl-7,8-dihydro-6H-7,11-(epiminoethanooxyethanoiminothioiminomethano)indolo[1,2-e][1,5]benzoxazocin-15-one 17,17-dioxide]", "IC50": "< 25"},
      {"compound": "C=CCc1cccc2c1OCC1Cn3c-2c(C2CCCCC2)c2ccc(cc23)C(=O)NS(=O)(=O)N(C)CCN(CC)CCN1C", "note": "[Example 403, (7R)-4-allyl-14-cyclohexyl-21-ethyl-18,24-dimethyl-7,8-dihydro-6H-7,11-(epiminoethanoiminoethanoiminothioiminomethano)-indolo[1,2-e][1,5]benzoxazocin-15-one 17,17-dioxide]", "IC50": "25 to 150"},
      {"compound": "CCN1CCN(C)C2COc3c(F)cccc3-c3c(C4CCCCC4)c4ccc(cc4n3C2)C(=O)NS(=O)(=O)N(C)CC1", "note": "[Example 404, (7R)-14-cyclohexyl-21-ethyl-4-fluoro-18,24-dimethyl-7,8-dihydro-6H-7,11-(epiminoethanoiminoethanoiminothioiminomethano)-indolo[1,2-e][1,5]benzoxazocin-15-one 17,17-dioxide]", "IC50": "< 25"},
      {"compound": "CC(C)N1CCN(C)C2COc3c(F)cccc3-c3c(C4CCCCC4)c4ccc(cc4n3C2)C(=O)NS(=O)(=O)N(C)CC1", "note": "[Example 405, (7R)-14-cyclohexyl-4-fluoro-21-isopropyl-18,24-dimethyl-7,8-dihydro-6H-7,11-(epiminoethanoiminoethanoiminothioiminomethano)-indolo[1,2-e][1,5]benzoxazocin-15-one 17,17-dioxide]", "IC50": "< 25"},
      {"compound": "CCN1CCN(C)C2COc3c(cccc3C(F)(F)F)-c3c(C4CCCCC4)c4ccc(cc4n3C2)C(=O)NS(=O)(=O)N(C)CC1", "note": "[Example 406, (7R)-14-cyclohexyl-21-ethyl-18,24-dimethyl-4-(trifluoromethyl)-7,8-dihydro-6H-7,11-(epiminoethanoiminoethanoiminothioiminomethano)-indolo[1,2-e][1,5]benzoxazocin-15-one 17,17-dioxide]", "IC50": "150 to 500"},
      {"compound": "CN1CCN(C)[C@H]2COc3c(CC4CC4)cccc3-c3c(C4CCCCC4)c4ccc(cc4n3C2)C(=O)NS(=O)(=O)N(C)CC1", "note": "[Example 407, (7R)-14-cyclohexyl-4-(cyclopropylmethyl)-18,21,24-trimethyl-7,8-dihydro-6H-7,11-(epiminoethanoiminoethanoiminothioiminomethano)-indolo[1,2-e][1,5]benzoxazocin-15-one 17,17-dioxide]", "IC50": "< 25"},
      {"compound": "CN1CCN(CC(N)=O)C2COc3ccccc3-c3c(C4CCCCC4)c4ccc(cc4n3C2)C(=O)NS(=O)(=O)N(C)CC1", "note": "[Example 408, 2-[(7R)-14-cyclohexyl-18,21-dimethyl-17,17-dioxido-15-oxo-7,8-dihydro-6H-7,11-(epiminoethanoiminoethanoiminothioiminomethano)-indolo[1,2-e][1,5]benzoxazocin-24-yl]acetamide]", "IC50": "25 to 150"},
      {"compound": "CN1CCN(Cc2cnn(C)c2)C2COc3ccccc3-c3c(C4CCCCC4)c4ccc(cc4n3C2)C(=O)NS(=O)(=O)N(C)CC1", "note": "[Example 409, (7R)-14-cyclohexyl-18,21-dimethyl-24-[(1-methyl-1H-pyrazol-4-yl)methyl]-7,8-dihydro-6H-7,11-(epiminoethanoiminoethanoiminothioiminomethano)-indolo[1,2-e][1,5]benzoxazocin-15-one 17,17-dioxide]", "IC50": "< 25"},
      {"compound": "CN1CCNCCN(C)S(=O)(=O)NC(=O)c2ccc3c(C4CCCCC4)c4n(c3c2)C[C@@H]1COc1c(CN2CCOCC2)cccc1-4", "note": "[Example 410, (7R)-14-cyclohexyl-18,24-dimethyl-4-(morpholin-4-ylmethyl)-7,8-dihydro-6H-7,11-(epiminoethanoiminoethanoiminothioiminomethano)-indolo[1,2-e][1,5]benzoxazocin-15-one 17,17-dioxide]", "IC50": "25 to 150"},
      {"compound": "CN1CCN(C)[C@H]2COc3c(OCc4ccccc4)cccc3-c3c(C4CCCCC4)c4ccc(cc4n3C2)C(=O)NS(=O)(=O)N(C)CC1", "note": "[Example 411, (7R)-4-(benzyloxy)-14-cyclohexyl-18,21,24-trimethyl-7,8-dihydro-6H-7,11-(epiminoethanoiminoethanoiminothioiminomethano)-indolo[1,2-e][1,5]benzoxazocin-15-one 17,17-dioxide]", "IC50": "25 to 150"},
      {"compound": "COc1cccc2c1OCC1Cn3c-2c(C2CCCCC2)c2ccc(cc23)C(=O)NS(=O)(=O)N(C)CCN(C)CCN1C", "note": "[Example 412, (7R)-14-cyclohexyl-4-methoxy-18,21,24-trimethyl-7,8-dihydro-6H-7,11-(epiminoethanoiminoethanoiminothioiminomethano)-indolo[1,2-e][1,5]benzoxazocin-15-one 17,17-dioxide]", "IC50": "< 25"}
    ]}
  ]
}
